Data: patent US20100221709A1, “METHODS FOR IDENTIFYING AGENTS THAT MODULATE APOPTOSIS IN CELLS THAT OVER-EXPRESS A BCL-2 FAMILY MEMBER PROTEIN” (priority 2005, published 2010)
Several values for one entry are separate records, joined by “and”; a condition that tells them apart may be missing. Equal entries are not always repeated.

How the values were obtained:
RPMI-8226 cells [1] = assay: GI50 assay, MTT cell proliferation; format: cell-based, human
Experimental: RPMI-8226 cells were grown in 96 well plates for 24 h prior to addition of 2-methoxy antimycins. Antimycin stocks in dimethyl sulfoxide (DMSO) were serially diluted in RPMI. Cells were incubated for 48 h with compounds at final compound concentrations ranging from 10^−4 to 10^−8 M. MTT cell proliferation assays were performed in quadruplicate and percent growth inhibitions were calculated as (A570 (control cells)-A570 (treated cells))/A570 (control cells). GI50 was extrapolated from semi-log plots of the dose response for each compound. […] After 72 h drug exposures, 1 μCi/ml [^3H]-thymidine was added to wells. Cells were incubated for an additional 24 h, and then transferred to GF/C filter plates (Packard) using a plate washer. Filters were dried, added to scintillant, and counted in a TopCount® scintillation counter (Packard). Drug response is expressed as the percentage of vehicle-treated controls, and each value shown is the average of three determinations.

Bcl-xL(ΔC) WT = molecular target: T1, Bcl-xL(ΔC) WT (Homo sapiens, UniProt Q07817); assay: Pore assay, calcein release from large unilamellar vesicles; format: biochemical
T1 construct: inferred from pET22b(+) NdeI/XhoI cloning and nickel-NTA purification) (C); made in house; host or cells: Escherichia coli BL21(DE3) carrying pUB520
T1 sequence (Q07817 1-211 limits assumed, stated change not applied): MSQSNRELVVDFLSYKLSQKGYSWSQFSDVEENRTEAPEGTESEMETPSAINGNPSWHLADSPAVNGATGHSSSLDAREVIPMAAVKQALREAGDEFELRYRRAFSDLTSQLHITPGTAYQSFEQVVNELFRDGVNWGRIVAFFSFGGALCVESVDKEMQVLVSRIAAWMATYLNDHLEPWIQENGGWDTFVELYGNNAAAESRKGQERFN
Experimental: Large unilamellar vesicles composed of 60% dioleoylphophatidylcholine and 40% dioleoylphosphatidylglycerol were prepared by the extrusion method of Mayer et al., supra. Lipid stocks, in chloroform, were mixed and dried under a stream of nitrogen gas. The lipid was resuspended by vortexing for 30 min in a solution of 40 mM calcein (Molecular Probes), 25 mM KCl, and 10 mM KOAc, pH 5.0. After 10 freeze-thaw cycles, the lipid suspension was extruded through two 0.1 μm pore diameter Nucleopore filters. Non-entrapped dye was removed by passage over a Sephadex G10 column (Amersham Biosciences). Lipid concentration was measured using the ammonium ferrothiocyanate method (Stewart, Anal. Biochem. 104:10-14, 1980).
For pore assays, recombinant truncated Bcl-2 family protein or mutant protein (Bcl-xL(ΔC)) (500 nM) was added to large unilamellar vesicles (60 μM lipid concentration) in 100 mM KCl, 10 mM KOAc, pH 5.0, and fluorescence measured (490 nm excitation, 520 nm emission) with a Fluoromax-3 spectrophotometer. Peptides of the BH3 domain were incubated with the Bcl-xL(ΔC) 5 min prior to mixing with liposomes. AA1 was added to liposomes 1 min before adding the Bcl-xL(ΔC) protein. Samples for kinetic assays were analyzed in a thermostatted cuvette at 37° C. with constant stirring. Dose responses were measured in black quartz microplates (Hellma) at room temperature. Calcein release was expressed as percentage of maximum release with detergent lysis (0.1% Triton X-100).

[2] = LC/MS analyses of plasma after administration; format: in vivo, mice; settings: preliminary LC/MS analyses
RPMI-8226 cells [3] = assay: Combined cytotoxicity with standard anticancer agents; format: cell-based, human; settings: suboptimal combinations, 24 h
Experimental: Concentrations of standard chemotherapeutic agents were adjusted to achieve <20% cell death as single agents over 24 h treatments. Cells treated with 20 μg/ml 2-OMe antimycin A1 and indicated concentrations of etoposide, melphalan or daunorubicin. Predicted viability at 24 h is derived from additive cytotoxicity of single agents (open symbols). Observed viability for combination (closed symbols). Each symbol represents separate experiment. Viabilities (PI-negative) are normalized to untreated cells.

NOD/SCID mice = assay: In vivo toxicity, intravenous dosing
Experimental: (§1) 2-OMe antimycin A1 was synthesized from antimycin A1 (Sigma) and dissolved in phosphate-buffered saline with 20% Cremaphor, 25% ethanol (3 mg/ml) for parenteral administration by tail vein injection in a total volume of 100 μl. Control mice received injections of Cremaphor/ethanol vehicle.
(§2) To determine whether 2-OMeAA1 has anti-tumor activity in vivo, a total of 12 NOD/SCID mice in three experiments were inoculated with 3×10^7 RPMI-8226 human myeloma cells by interscapular subcutaneous injection. […] In total, six mice received three intravenous doses of 10 mg/kg 2-OMeAA1 on alternate days starting on day 6. Six control mice received injections of Cremaphor/ethanol vehicle without drug.

[4] = tested on: RPMI-8226 human myeloma cells; assay: RPMI-8226 myeloma tumor xenografts
Experimental: Six to nine-week old Nod/Les2 Scid/J mice were inoculated with 3×10^7 RPMI-8226 cells by interscapular subcutaneous injection. Mice were maintained under specific pathogen-free conditions. Palpable tumor nodules were measured in two dimensions with calipers and tumor volumes calculated in mm^3 as (length×width^2)/2. Blood samples were collected by retro-orbital bleed for human light chain measurements by ELISA with lambda-specific antibody and horseradish peroxidase detection (BD Biosciences). Animals were sacrificed by halothane inhalation, and histologic examination of tumors and internal organs was performed. All experiments were approved by the Fred Hutchinson Cancer Research Center Institutional Animal Care and Use Committee.
as §1
Tissues were fixed in 10% buffered formalin, embedded in paraffin, sectioned and stained with hematoxylin and eosin. TUNEL staining was performed using 0.3 units/ml terminal deoxynucleotidyl transferase and biotinylated dATP with development by avidin-biotin peroxidase method. Bcl-xL immunohistochemistry was performed using anti-Bcl-xL antibody (BD Biosciences) followed by biotinylated secondary antibody and peroxidase-labeled ABC reagent (Vector, Burlingame Calif.).
as §2

[5] = tested on: TAMH cells over-expressing Bcl-xL A142L; assay: STS and antimycin toxicity, Alamar Blue viability; format: cell-based, murine; settings: for LD50: 24 h treatment
Experimental: (§3) TAMH cells were transfected with DNA encoding each of the mutant Bcl-xL proteins by lipofection (See Example 1 for method). For analysis of Bcl-xL expression, 20 μg of cell protein was separated by 20% SDS-PAGE and transferred to nitrocellulose membranes. Immunodetection of Bcl-xL was carried out using rabbit anti-Bcl-xL antibody and Protein A/horseradish peroxidase conjugate, followed by chemiluminescent detection. Cells were grown to about 80% confluence in 96-well plates followed by addition of 100 μl of 2×AA1 or staurosporine (STS) solution in complete medium. STS is a natural product originally isolated from the bacterium Streptomyces and found to be capable of inducing apoptosis in certain cells and which induction of apoptosis could be blocked by the expression of a Bcl-2 family protein. Cell viability was determined spectrophotometrically after 24 h treatment as the ratio of reduced and oxidized Alamar Blue (BIOSOURCE) at 570 nm and 600 nm, respectively. All results were normalized against DMSO controls. LD50 values were calculated by non-linear regression analysis using Prism software (Graphpad).

[6] = tested on: TAMH cells over-expressing Bcl-xL F146L; assay: STS and antimycin toxicity, Alamar Blue viability; format: cell-based, murine; settings: for LD50: 24 h treatment
Experimental: as §3

[7] = tested on: TAMH cells over-expressing Bcl-xL E92L; assay: STS and antimycin toxicity, Alamar Blue viability; format: cell-based, murine; settings: 24 h treatment
Experimental: as §3

[8] = tested on: TAMH cells over-expressing Bcl-xL WT; assay: STS and antimycin toxicity, Alamar Blue viability; format: cell-based, murine; settings: 24 h treatment
Experimental: as §3

[9] = tested on: TAMH cells over-expressing Bcl-xL F97W; assay: STS and antimycin toxicity, Alamar Blue viability; format: cell-based, murine; settings: 24 h treatment
Experimental: as §3

Bcl-xL(ΔC) F97W = molecular target: T2, Bcl-xL(ΔC) F97W (Homo sapiens, UniProt Q07817, F97W); assay: Fluorescence anisotropy binding
T2 construct: inferred from pET22b(+) NdeI/XhoI cloning and nickel-NTA purification) (C); made in house; host or cells: Escherichia coli BL21(DE3) carrying pUB520
T2 sequence (Q07817 1-211 F97W limits assumed): as the sequence (Q07817 1-211 limits assumed, stated change not applied) above, with F97W counted along it
Experimental: (§4) A pET22b (Novagen) vector coding for Bcl-xL(ΔC), a mutant Bcl-xL protein without the COOH terminal region, was transformed into Escherichia coli BL21(DE3) cells that carried pUB520 (encoding human Arg tRNA) and grown to an A600 of 0.6. Protein expression was induced with 0.1 mM isopropyl β-D-thiogalactoside at 30° C. The cells were resuspended 1:5 (w/v) in PEB buffer (50 mM Tris, pH 8.0, 200 mM NaCl, 0.2 mM phenylmethylsulfonyl fluoride, 5 mM β-mercaptoethanol, 5 mM imidazole, and 1% (v/v) glycerol), and stirred for 20 min at 4° C. Cells were disrupted by pulse sonication, and the soluble fraction was loaded onto a nickel-nitrilotriacetic acid column (Qiagen) equilibrated with PEB buffer. The column was washed with 40 mM imidazole, eluted with 200 mM imidazole, and the protein fractions were pooled and dialyzed (50 mM Tris, pH 8.0, 200 mM NaCl, 0.2 mM phenylmethylsulfonyl fluoride) at 4° C. overnight. The dialyzed protein was concentrated to 10 mg/ml and fractionated on a Superdex 75 gel filtration column (Amersham Biosciences). The fractions containing Bcl-xL(ΔC) protein were pooled, exchanged into low-salt buffer (same as for previous dialysis buffer, except 50 mM NaCl), and loaded onto a MonoQ anion exchange column (Amersham Biosciences). Protein was eluted from the column with increasing NaCl gradient, pooled and concentrated.
(§5) All reagents were prepared in 0.2 μm-filtered PBS with fresh 1 mM DTT. […] Slit widths were set at 10 nm for both excitation and emission.

Bcl-xL(ΔC) A142L = molecular target: T3, Bcl-xL(ΔC) A142L (Homo sapiens, UniProt Q07817, A142L); assay: Fluorescence anisotropy binding
T3 construct: inferred from pET22b(+) NdeI/XhoI cloning and nickel-NTA purification) (C); made in house; host or cells: Escherichia coli BL21(DE3) carrying pUB520
T3 sequence (Q07817 1-211 A142L limits assumed): as the sequence (Q07817 1-211 limits assumed, stated change not applied) above, with A142L counted along it
Experimental: as §4, §5

Bcl-xL(ΔC) F146L = molecular target: T4, Bcl-xL(ΔC) F146L (Homo sapiens, UniProt Q07817, F146L); assay: Fluorescence anisotropy binding
T4 construct: inferred from pET22b(+) NdeI/XhoI cloning and nickel-NTA purification) (C); made in house; host or cells: Escherichia coli BL21(DE3) carrying pUB520
T4 sequence (Q07817 1-211 F146L limits assumed): as the sequence (Q07817 1-211 limits assumed, stated change not applied) above, with F146L counted along it
Experimental: as §4, §5

[10] = tested on: TAMH vector-only control cells; assay: STS toxicity, Alamar Blue viability; format: cell-based, murine; settings: 24 h treatment
Experimental: as §3

## 2-OMe antimycin A5
RPMI-8226 cells [1]
  activity (GI50) relative to 2-OMe antimycin A1, A2 and A3: approximately ⅓

## CCCCCC[C@H]1C(=O)O[C@H](C)[C@H](NC(=O)c2cccc(NC=O)c2OC)C(=O)O[C@@H](C)[C@@H]1OC(=O)CC(C)C [2-OMeAA1, 2-OMe antimycin A1]
Bcl-xL(ΔC) WT
  effect on Bcl-xL pore-forming activity (FIG. 3A): inhibited
[2]
  reformation of antimycin A1 in plasma: have not demonstrated reformation of antimycin A1
RPMI-8226 cells [3]
  combined killing with etoposide or melphalan: Supra-additive killing
NOD/SCID mice; 10 mg/kg
  histologic examination of normal tissues: No cellular injury or inflammation
NOD/SCID mice; schedule of 3 intravenous doses on alternate days
  LD50 dose: 20 mg/kg
NOD/SCID mice; three intravenous doses at 10 mg/kg on alternate days
  mice survived without apparent toxicity: 6/6
[4]; 10 mg/kg
  adverse effects in treated mice: No adverse effects
[4]; 10 mg/kg i.v., after the third injection
  average reduction of serum levels of human light chain: 87%
[4]; 10 mg/kg on alternate days, days 26 to 31
  mice with regression of tumor nodules, second round: six of six
[4]; 24 and 48 h after a single 10 mg/kg intravenous treatment
  apoptosis in tumor sections: widespread apoptosis
[4]; three i.v. doses of 10 mg/kg on alternate days from day 6
  mice with tumor regression during treatment: Five of six

## CCCCCC[C@H]1C(=O)O[C@H](C)[C@H](NC(=O)c2cccc(NC=O)c2O)C(=O)O[C@@H](C)[C@@H]1OC(=O)CC(C)C [AA1, antimycin A1]
Bcl-xL(ΔC) WT
  effect on Bcl-xL pore-forming activity (FIG. 3A): inhibited
[5]
  sensitivity of mutant cells to antimycin A1: completely insensitive
  LD50: >10 µM
[6]
  sensitivity of mutant cells to antimycin A1: completely insensitive
  LD50: >10 µM
[7]
  LD50: 1.72 ± 0.34^2 μM
[7]; listed as antimycin A1
  LD50: 1.72 ± 0.3 µM
[8]
  LD50: 0.47 ± 0.07 µM
[8]; listed as antimycin A1
  LD50: 0.47 µM
[9]
  LD50: 5.12 ± 0.94^2 μM
[9]; listed as antimycin A1
  LD50: 5.12 ± 0.9 µM
Bcl-xL(ΔC) F97W
  fold increase in Kd of AA1 binding compared with Bcl-xL wt(ΔC): 8 fold
Bcl-xL(ΔC) A142L
  fold increase in Kd of AA1 binding compared with Bcl-xL wt(ΔC): 20 fold
Bcl-xL(ΔC) F146L
  fold decrease in AA1 affinity: ~10 fold

## CN[C@@H]1C[C@H]2O[C@@](C)([C@@H]1OC)n1c3ccccc3c3c4c(c5c6ccccc6n2c5c31)C(=O)NC4 [STS, staurosporine]
[10]
  LD50: 0.11 ± 0.01 µM
[5]
  LD50: 0.49 ± 0.11 µM
[6]
  LD50: 0.38 ± 0.04 µM
[7]
  LD50: 0.52 ± 0.12 µM
[8]
  LD50: 0.58 ± 0.1 µM and 0.58 ± 0.14 µM
[9]
  LD50: 0.34 ± 0.10 µM
